Laboratory results taken from paper PMC12436592 (Nature Communications, 2025).
Where “and” joins values, the source holds several entries; their conditions need not be identical. Identical values can stand only once. Blank lines part the entries; values can stand above or below the molecule they belong to.

Legend:
hP2X7R = target: T1, hP2X7R (Homo sapiens, UniProt Q99572); experiment: Calcium influx assay, 1321N1 astrocytoma cells, BzATP EC80; type: cell-based; parameters: expressed in transfected cells; conditions: for IC50: 1321N1 cells, BzATP EC80, mean ± SD
T1 sequence (Q99572 1-595): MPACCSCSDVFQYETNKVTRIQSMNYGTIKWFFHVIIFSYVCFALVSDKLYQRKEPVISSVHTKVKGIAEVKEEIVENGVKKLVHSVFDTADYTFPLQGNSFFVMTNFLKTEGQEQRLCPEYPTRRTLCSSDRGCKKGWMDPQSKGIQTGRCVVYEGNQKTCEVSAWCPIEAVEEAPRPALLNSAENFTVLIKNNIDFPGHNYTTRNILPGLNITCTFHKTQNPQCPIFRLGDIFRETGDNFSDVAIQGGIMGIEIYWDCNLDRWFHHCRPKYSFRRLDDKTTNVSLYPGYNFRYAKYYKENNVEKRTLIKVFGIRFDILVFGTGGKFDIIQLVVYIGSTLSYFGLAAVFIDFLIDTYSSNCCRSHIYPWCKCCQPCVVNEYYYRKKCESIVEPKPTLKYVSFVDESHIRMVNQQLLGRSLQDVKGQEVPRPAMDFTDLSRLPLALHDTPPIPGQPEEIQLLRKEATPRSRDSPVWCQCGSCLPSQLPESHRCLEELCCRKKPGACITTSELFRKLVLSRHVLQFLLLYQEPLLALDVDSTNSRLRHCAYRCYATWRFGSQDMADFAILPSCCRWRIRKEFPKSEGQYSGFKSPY
From the text: For 1321N1 astrocytoma cells stably expressing the human, rat, or mouse P2X7Rs, or hP2X2Rs or hP2X4Rs, the fluorescent Ca^2+-chelating dye Fluo-4 acetoxymethyl ester (Fluo-4 AM, Thermo Fisher Scientific, Dreieich, Germany) was used. For 1321N1 astrocytoma cell lines recombinantly expressing the hP2X1Rs or hP2X3Rs, the FLIPR® Calcium 5 Assay Kit (Molecular Devices, San José, CA, USA) was employed. Human, rat, and mouse P2X7Rs as well as hP2X1Rs, hP2X2Rs, hP2X3Rs, and hP2X4Rs were recombinantly expressed in 1321N1 astrocytoma cells using a retroviral expression system[72]–[74].
(§1) On the first day, 45,000 cells per well (30,000 cells for the human P2X3 receptor-expressing cells) were seeded into a 96-well polystyrene microplate with a black, flat bottom in a final volume of 200 µL. After overnight incubation at 37 °C and 10% CO2 (5% CO2 for the human P2X3R-expressing cell line), the medium was removed by inverting the plate, and the cells were loaded with dye solution. Hanks’ balanced salt solution (HBSS, Thermo Fisher Scientific, Dreieich, Germany) was used as the assay buffer for human P2X1R, P2X2R, P2X3R, and P2X4R. For the P2X7Rs, a different assay buffer was used: 150 mM sodium-glutamate, 5 mM KCl, 0.5 mM CaCl2, 0.1 mM MgCl2, 10 mM D-glucose, 25 mM 4-(2-hydroxyethyl)-1-piperazineethanesulfonic acid (HEPES), pH 7.4. The dye solutions were freshly prepared. The Fluo-4 AM solution contained 3 µM of Fluo-4 AM in assay buffer and 1% of the non-ionic detergent Pluronic F-127® (Sigma-Aldrich, Taufkirchen, Germany). The Calcium 5 dye, used for hP2X1Rs and hP2X3Rs, was prepared in HBSS buffer. Cells were loaded with Fluo-4 AM and incubated for 1 h at room temperature with gentle shaking (100 rpm), while those loaded with the Calcium 5 dye were incubated for 1 h at 37 °C. After incubation, the dye solution was carefully removed from the plate, and buffer was added to the cells for the evaluation of agonists. […] The agonist solution was prepared in a 96-well transparent plate, obtaining the respective EC80 values. As a control, assay buffer without the test compound was used. After 30 min of incubation with antagonist, the plates were measured using a fluorescence imaging plate reader NOVOstar (BMG Labtech GmbH, Offenburg, Germany) at an excitation wavelength of 485 nm and an emission wavelength of 520 nm, for 30 s at 0.4 s intervals. Calcium influx measurements were then initiated by automatic addition of 20 µL of agonist solution by the plate reader’s pipetting device. Data were analyzed using Microsoft Excel and GraphPad Prism (Version 8.0, San Diego, CA, USA). EC80 and IC50 values were calculated using nonlinear regression with a sigmoidal dose-response equation.

rP2X7R = target: T2, rP2X7R (Rattus norvegicus, UniProt Q64663); experiment: as above; type: cell-based; parameters: expressed in transfected cells; conditions: for IC50: 1321N1 cells, BzATP EC80, mean ± SD
T2 sequence (Q64663 1-595): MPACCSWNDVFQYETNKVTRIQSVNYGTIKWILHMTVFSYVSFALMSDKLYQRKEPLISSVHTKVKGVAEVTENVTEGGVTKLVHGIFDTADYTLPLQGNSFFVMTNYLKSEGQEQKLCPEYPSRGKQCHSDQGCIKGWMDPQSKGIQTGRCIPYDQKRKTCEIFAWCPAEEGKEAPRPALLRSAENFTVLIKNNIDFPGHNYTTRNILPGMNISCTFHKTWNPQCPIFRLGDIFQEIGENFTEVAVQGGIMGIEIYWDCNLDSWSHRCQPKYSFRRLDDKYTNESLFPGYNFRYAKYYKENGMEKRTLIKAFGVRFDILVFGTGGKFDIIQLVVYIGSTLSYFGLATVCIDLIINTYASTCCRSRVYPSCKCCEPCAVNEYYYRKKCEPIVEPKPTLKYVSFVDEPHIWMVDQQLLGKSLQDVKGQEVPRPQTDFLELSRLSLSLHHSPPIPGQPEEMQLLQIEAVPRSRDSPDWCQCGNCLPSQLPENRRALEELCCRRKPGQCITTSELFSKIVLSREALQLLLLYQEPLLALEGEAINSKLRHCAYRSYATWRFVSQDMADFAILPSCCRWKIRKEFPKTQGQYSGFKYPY
From the text: (§2) . For 1321N1 astrocytoma cells stably expressing the human, rat, or mouse P2X7Rs, or hP2X2Rs or hP2X4Rs, the fluorescent Ca^2+-chelating dye Fluo-4 acetoxymethyl ester (Fluo-4 AM, Thermo Fisher Scientific, Dreieich, Germany) was used. For 1321N1 astrocytoma cell lines recombinantly expressing the hP2X1Rs or hP2X3Rs, the FLIPR® Calcium 5 Assay Kit (Molecular Devices, San José, CA, USA) was employed. Human, rat, and mouse P2X7Rs as well as hP2X1Rs, hP2X2Rs, hP2X3Rs, and hP2X4Rs were recombinantly expressed in 1321N1 astrocytoma cells using a retroviral expression system[72]–[74].
as §1

hP2X2R = system: T3, hP2X2R; experiment: Calcium influx assay, 1321N1 astrocytoma cells, ATP EC80; type: cell-based, human; conditions: 10 μM antagonist, ATP 1000 nM
T3 construct: expressed in transfected cells
From the text: as §2, §1

hP2X4R = system: T4, hP2X4R; experiment: as above; type: cell-based, human; conditions: 10 μM antagonist, ATP 300 nM
T4 construct: expressed in transfected cells
From the text: as §2, §1

IC50 (hP2X7R): 17.8 nM and 18 nM
activity at 0.03 µM (rP2X7R; 1321-N1, Log(c) M -7.52288, read-out: normalized calcium signal, rP2X7R IC50 curve): 94.8%
activity at 0.01 µM (rP2X7R; 1321-N1, Log(c) M -8, read-out: normalized calcium signal, rP2X7R IC50 curve): 98.3%
IC50 (rP2X7R): 116 ± 50 nM
Compound: O=C(NNc1ccccc1Cl)C12CC3CC(CC(C3)C1)C2 [UB-ALT-P30, reference compound]
normalized calcium signal, hP2X7R IC50 curve (hP2X7R; Log(c) M -9, 0.001 µM): 71.6317 and 73.6475 and 92.6717 and 89.8426 and 81.3931
normalized calcium signal, rP2X7R IC50 curve (rP2X7R; Log(c) M -7.52288, 0.03 µM): 96.1595 and 98.0559 and 102.654 and 103.189
normalized calcium signal, rP2X7R IC50 curve (rP2X7R; Log(c) M -8, 0.01 µM): 98.7308 and 105.449 and 107.576 and 114.231 and 110.835
normalized calcium signal, rP2X7R IC50 curve (rP2X7R; Log(c) M -8.52288, 0.003 µM): 87.0316 and 95.5173 and 98.7016 and 89.3009 and 111.685 and 110.916 and 108.743
% inhibition ± SD at 10 μM, hP2X2R (hP2X2R): 29 ± 7%
% inhibition ± SD at 10 μM, hP2X4R (hP2X4R): 44 ± 14%

activity at 0.0003 µM (hP2X7R; 1321-N1, Log(c) M -9.52288, read-out: normalized calcium signal, hP2X7R IC50 curve): 82.4%
activity at 0.0001 µM (hP2X7R; 1321-N1, Log(c) M -10, read-out: normalized calcium signal, hP2X7R IC50 curve): 110%
activity at 30 pM (hP2X7R; 1321-N1, Log(c) M -10.5229, read-out: normalized calcium signal, hP2X7R IC50 curve): 100%
IC50 (hP2X7R): 0.514 ± 0.035 nM
normalized calcium signal, hP2X7R IC50 curve (hP2X7R; Log(c) M -10, 0.0001 µM): 91.6497 and 103.346 and 103.977
activity at 0.003 µM (rP2X7R; 1321-N1, Log(c) M -8.52288, read-out: normalized calcium signal, rP2X7R IC50 curve): 92.9%
activity at 0.001 µM (rP2X7R; 1321-N1, Log(c) M -9, read-out: normalized calcium signal, rP2X7R IC50 curve): 83%
activity at 0.0003 µM (rP2X7R; 1321-N1, Log(c) M -9.52288, read-out: normalized calcium signal, rP2X7R IC50 curve): 92.1%
IC50 (rP2X7R): 40.6 ± 10.4 nM
normalized calcium signal, rP2X7R IC50 curve (rP2X7R; Log(c) M -9, 0.001 µM): 97.4351
Compound: CC12CC3CC1(C)C1(C)CC3(C(=O)NNc3ccccc3Cl)CC21C [UB-MBX-46]
normalized calcium signal, hP2X7R IC50 curve (hP2X7R; Log(c) M -9.52288, 0.0003 µM): 83.2395 and 75.8405 and 85.4678 and 91.9881
times more potent than UB-ALT-P30 on the hP2X7R (hP2X7R; calcium influx): ~ 35 x
normalized calcium signal, rP2X7R IC50 curve (rP2X7R; Log(c) M -8, 0.01 µM): 92.0673 and 92.0463 and 93.4263 and 100.969 and 74.9729 and 70.4733
normalized calcium signal, rP2X7R IC50 curve (rP2X7R; Log(c) M -8.52288, 0.003 µM): 98.336 and 95.4706 and 107.675 and 91.9395
times more potent than UB-ALT-P30 on the rP2X7R (rP2X7R; calcium influx): ~ 3 x
% inhibition ± SD at 10 μM, hP2X2R (hP2X2R): 15 ± 9%
% inhibition ± SD at 10 μM, hP2X4R (hP2X4R): 41 ± 19%
